Laboratory results from patent US20250114329A1, “METHODS FOR TREATING AML-MRC AND MDS” (Ascentage Pharma (Suzhou) Co., LTD, priority 2022, published 2025).

Legend:
H929 cells = assay: Western Blotting assay; format: cell-based, human; conditions: 24 hrs or 48 hrs
Experimental: After treatments with single or combined test articles, cultured cells were harvested and washed with ice-cold PBS. Cell pellets were lysed in RIPA buffer containing 1% PMSF, 1% phosphatase inhibitor, and 1% protease inhibitors. Protein concentrations were determined using the BCA Protein Assay Kit. Whole tumor lysates ([…]) were separated on an 8-12% SDS-PAGE. The separated proteins were transferred to a PVDF membrane. The PVDF membrane was blocked with 1-3% BSA buffer for 30 min to 1 hour at room temperature. Incubate membrane with diluted primary antibody in 1×TBST containing 1-3% BSA at 4° C., with gentle agitation overnight. Wash the membrane with 1×TBST three times. Incubate membrane with HRP-conjugated secondary antibody with gentle agitation for 1 hour at room temperature. Wash the membrane with 1×TBST three times. The signals were visualized with Super ECL Detection Reagent and detected by chemiluminescence imaging system.

[1] = tested on: R/R AML with myelodysplasia-related changes; assay: Phase Ib/II study of Compound C alone or in combination with 5-azacitidine or cytarabine (Example 2); format: in vivo, human; conditions: Compound C alone, person, R/R AML-MRC
Source text: This was a three parts study in patients with relapsed/refractory acute myeloid leukemia (AML), relapsed or progressed high or very high risk myelodysplastic syndrome (MDS) that was designed to evaluate the safety and tolerability of Compound C as a single agent in Part I, followed by a combination dose escalation of Compound C plus either 5-azacitidine or cytarabine in Part II and a dose expansion of the combination treatment in part III. Part I: Dose escalation of Compound C will use standard 3+3 design. Compound C will be administered orally once daily (QD) on Day 1 to 7 every 28-day cycle. The starting target dose is 100 mg (dose level; DL1) and will be increased in subsequent cohorts to 150 mg (DL2), 200 mg (DL3) and 250 mg (DL4), accordingly. Part II: Dose escalation of Compound C combination with either 5-azacitidine or cytarabine, which includes two Arms, Arm A and Arm B. Arm A will enroll patients with relapsed or progressed high or very high risk MDS and Arm B will enroll patients with R/R AML. In this part, 5-azacitidine and cytarabine will be administered with fixed dose. The starting dose of Compound C was 100 mg and will be increased subsequently to 150 mg and 200 mg. In Arm A, Compound C will be co-administered with 5-azacitidine subcutaneously injected at 75 mg/m^2 once daily on Day 1 to 7 every 28-day cycle. In Arm B, Compound C will be co-administered once daily on Day 1 to 7 every 28-day cycle with cytarabine intravenously administered at 1 g/m^2 once daily on Day 3 to 7 every 28-day cycle.

[2] = tested on: relapsed/refractory AML, CMML or MDS (AML-MRC subject); assay: Phase Ib/II study of Compound C alone or in combination with azacitidine (Example 1); format: in vivo, human; conditions: Compound C alone, 150 mg
Source text: This was a two part study in patients with relapsed/refractory (R/R) acute myeloid leukemia (AML), Chronic Myelomonocytic Leukemia (CMML) and relapsed/progressed higher-risk myelodysplastic syndrome (MDS), that was designed to evaluate the safety and tolerability of Compound C as a single agent in Part I, followed by a combination of Compound C plus 5-azacitidine in Part II. Part I: Dose escalation of Compound C will use standard 3+3 design. Compound C will be administered orally once daily (QD) on Day 1 to 5 every 28-day cycle. The starting target dose is 100 mg (dose level; DL1) and will be increased in subsequent cohorts to 150 mg (DL2), 200 mg (DL3) and 250 mg (DL4), accordingly. Part II: Compound C will be co-administered with 5-azacitidine SC or IV at 75 mg/m^2 once daily on 7 out of 9 days from Day 1 to Day 9 every 28-day cycle.

CCN1[C@@H](C(=O)NC23CCC(C(=O)O)(CC2)CC3)[C@H](c2cccc(Cl)c2F)[C@]2(C(=O)Nc3cc(Cl)ccc32)C12CCCCC2 [Compound C, alrizomadlin]
P53, MDM2 and P21 expression (H929 cells): upregulated | Response ([1]; 100 mg, prior D-CAG, C1D62): CRi | Response ([1]; 200 mg, prior D-CAG, C3D21): CRi | Response ([1]; 250 mg, several prior regimens): MLFS | End of cycle 1 disease assessment ([2]; person, AML-MRC (TP53w, FLT3-, IDH1/2-), prior venetoclax + decitabine): CRi | Blast at C2D1 ([2]; reduced from 43%, Day 1 of cycle 2): to 13% | Blast at C3D1 ([2]; reduced from 43%, Day 1 of cycle 3): C2D1, to 3%
